From patent US20160367497A1, “METHODS AND COMPOSITIONS FOR TREATING NEUROPATHIES” (Washington University, priority 2007, published 2016)

Experiments:
[1] = tested on: DRG neuronal explant cultures; assay: in vitro Wallerian degeneration assay, DRG explant neurite transection; format: cell-based, mouse
Description: To identify the mechanism of delayed axonal degeneration mediated by the Wlds protein, we employed an in-vitro Wallerian degeneration model. Primary DRG explant neurons were infected with lentivirus expressing the appropriate proteins, and axons were injured by either removal of the neuronal cell body (transection) or growth in vincristine (toxic).
Mouse DRG explants from E12.5 embryos were cultured in the presence of 1 nM nerve growth factor. Non-neuronal cells were removed from the cultures by adding 5-fluorouracil to the culture medium. Transection of neurites was performed at 10-20 DIV using an 18-gauge needle to remove the neuronal cell bodies. Incubation with β-nicotinamide adenine dinucleotide (Sigma) or Sirtinol (Calbiochem) was performed using conditions indicated in the text or figures.
Quantitative analysis of axonal degeneration was performed as previously described (Zhai, et al., Neuron 39:217-25, 2003). Briefly, the cultures were examined using phase contrast microscopy at the indicated times. Axons with a fragmented, non-refractile appearance were designated as “degenerated.” At each time point, at least 200 singly distinguishable axons were blindly scored from several randomly taken images of each culture. Each condition was tested in triplicate explants in each experiment. Results were obtained from 2-4 independent experiments for each condition. Statistical analysis was performed by Student's T test. For calculations of neurite-covered area, digitally captured images from quadruplicate samples of two independent experiments were analyzed using analysis 3.1 software (Soft Imaging System, Lakewood, Colo.).
Cell culture, in vitro axotomy, and quantification of axonal degeneration. Mouse DRG explants from E12.5 embryos were cultured in the DMEM containing 10% FCS and 1 nM nerve growth factor. Non-neuronal cells were removed from the cultures by adding 5-fluorouracil to the culture media. Transection of neurites was performed at 14-21 DIV using an 18-gauge needle to remove the neuronal cell bodies. Lentiviral expression vectors were generated. Lentiviral infection was performed 3-7 days prior to axonal transection for 24 hr. Quantitative analysis of neurite degeneration was performed.

neuro2A cells = assay: neurite outgrowth in Neuro2a cells; format: cell-based; details: for effect on resveratrol-stimulated neurite outgrowth: resveratrol 10 μM, Compound C 10 μM, SIRT1 inhibitors, STO 609 2.5 μM or dnAMPK expression
Description: FIG. 11A-D illustrates the resveratrol and AICAR stimulation of neurite outgrowth in Neuro2a cells. Neuro2a cells were switched to serum-starvation medium (medium containing 0.2% FCS) and treated with DMSO (vehicle control), resveratrol (10 μM) or AICAR (1 mM). (A) Serum deprivation of Neuro2a cells results in growth of short neurites that increase in length over 72 h. (B) Resveratrol induced rapid neurite outgrowth resulting in elaborate neurite network formation by 48 h. (C) AICAR stimulated extensive neurite outgrowth similar to that observed with resveratrol. (D).
FIG. 12A-M illustrates the dependency of resveratrol-induced neurite outgrowth and mitochondrial biogenesis on AMPK. Neuro2a cells were infected with lentivirus expressing GFP only (FUGW, control), dominant negative AMPK (dnAMPK) or constitutively active AMPK (caAMPK). Three days later cells were shifted to serum-starvation medium containing DMSO (control) or resveratrol (10 μM). In addition, uninfected Neuro2a cells in serum-starvation medium were treated with resveratrol alone, the AMPK inhibitor Compound C (CC, Biomol International L.P. (Plymouth Meeting, Pa.)) (10 μM) alone or with resveratrol and CC together. Images of the cultures captured in bright field and green fluorescence were overlaid to visualize neurite outgrowth. […] Neurite length in cells treated with caAMPK+resveratrol is also shown (G). […] Values were normalized to the 18S transcript. Data shown is representative of two independent experiments.
Cell culture and Reagents. Neuro2 cells obtained from ATCC were grown in MEM with 1.5 g/L sodium bicarbonate, 0.1 mM nonessential amino acids, 0.1 mM sodium pyruvate, 2 mM L-glutamine with 10% FCS. For differentiation, cells were switched to serum-starvation medium (containing 0.2% FCS). For neurite outgrowth measurements, experiments were done in quadruplicate and 100 neurites per well were randomly measured using the Metamorph software. Dorsal root ganglia sensory and cortical neurons were established from E13.5 mouse embryos, maintained in neurobasal medium supplemented with B27 (and NGF for DRG neurons) and infected with lentiviruses as described (Araki et al., 2004, Science 305:1010-1013; Hawley et al., 2005, Cell Metab 2:21-23). Resveratrol was a gift from Sirtris Pharmaceuticals (Cambridge Mass.) and AICAR was obtained from Toronto Research (North York, Canada). Splitomycin and Compound C were purchased from Biomol (Plymouth Meeting, Pa.) and Calbiochem (San Diego, Calif.). Sirtinol and nicotinamide were purchased from Sigma (Saint Louis, Mo.)
Neuro2a cells are a widely used as in vitro model of neuronal differentiation. These cells cease to proliferate and begin to differentiate, as evidenced by neurite outgrowth, in response to serum starvation, retinoic acid, or growth factors like neurotrophins and GDNF family ligands. […] Neuro2a cells grown under serum starvation conditions (0.2% fetal calf serum) were treated with AICAR (1 mM) or resveratrol (10 μM).
Since resveratrol activated AMPK and altered the differentiation of Neuro2a cells, we next asked whether AMPK activity was required for resveratrol-induced neurite outgrowth. To address this issue, we infected Neuro2a cells with lentivirus expressing either GFP alone (FUGW-control) or dominant negative AMPK (dnAMPK). After 3 days growth to allow robust lentiviral transgene expression, the medium was replaced with serum starvation medium. […] Resveratrol-induced neurite outgrowth was reduced in the presence of the AMPK pharmacological inhibitor Compound C (CC 10 μM) further supporting the importance of AMPK activity for resveratrol-induced neurite outgrowth.

`NC(=O)c1cccnc1` [Nam, nicotinamide] was tested, and the “neurite protection after transection” value ([1]; 1 mM applied for 24 hours before neurite transection) was “had no effect” and the “effect on resveratrol-stimulated neurite outgrowth” value (neuro2A cells) was “had no effect”.
With `O=C(O)c1ccc2c3c1cccc3c(=O)n1c3ccccc3nc21` [STO 609] the “effect on resveratrol-stimulated neurite outgrowth” value (neuro2A cells) was “had no effect”.
With `CC(NC(=O)c1ccccc1/N=C/c1c(O)ccc2ccccc12)c1ccccc1` (centres unmarked) [Sirtinol] the “effect on NAD-dependent axonal protection (NDAP)” value ([1]; neurons cultured in 1 mM NAD, Sirtinol 100 μM, 3AB 20 mM or siRNA lentivirus, 12 to 72 hr after transection) was “effectively blocked NDAP” and the “effect on resveratrol-stimulated neurite outgrowth” value (neuro2A cells) was “had no effect”.
`Oc1ccc(C=Cc2cc(O)cc(O)c2)cc1` [resveratrol] was tested, and the “axonal degradation after axotomy” value ([1]; 10~100 μM, treated prior to axotomy) was “decrease in axonal degradation that was comparable to that obtained using NAD” and the “neurite outgrowth compared to serum starvation alone” value (neuro2A cells; 0.2% FCS, resveratrol 10 μM or AICAR 1 mM) was “increased neurite outgrowth”.
In the case of `O=C1CCc2c(ccc3ccccc23)O1` [splitomycin], the “effect on resveratrol-stimulated neurite outgrowth” value (neuro2A cells) is reported as “had no effect”.
